Laboratory results published in patent US9611256B2, “Alkyne-, azide- and triazole-containing flavonoids as modulators for multidrug resistance in cancers” (The Hong Kong Polytechnic University, priority 2012, dated 2017).

Experiments:
[1] = in vitro; settings: mouse
[2] = molecular target: T1, MRP1 (Homo sapiens, UniProt P33527); assay: cell-based
[3] = system: P-gp, MRP1 and BCRP transporters; assay: Selectivity for ABC transporters, determined from % of reversion (Tables 1 and 2); type: cell-based, human; settings: determined from % of reversion in Table 1 (>80% strongly, 79-50% moderately selective)
From the text: Generally, the triazole dimers library can be divided into mono-selective, dual-selective and multi-selective ABC transporter modulators. Table 2 summarizes the selectivity of different active triazole dimers and some monomeric azides for the ABC transporters. […] From the study, it seems that the simple monomeric azides could be a highly BCRP-selective inhibitor. […] It is possible that differently selective (mono-, dual- and multi-) inhibitors of drug transporters could be potentially useful tools for investigation of complicated drug-resistance phenotypes and eventually, for treatment of drug-resistant cancers caused by overexpression of ABC transporters.
The selectivity of active triazole compounds for various ABC transporters was determined from the Table 1. It would be considered as strongly selective if it causes >80% of reversion. It would be considered as moderately selective if it results in 79-50% of reversion. Overall, the active triazole compounds can be divided into mono-, dual- and multi-selective for P-gp, MRP1 and BCRP transporters.

[4] = molecular target: T1, MRP1; assay: Reversal of MRP1-mediated DOX resistance in 2008/MRP1 cells (cell proliferation assay); settings: for DOX resistance of 2008/MRP1 Therapeutic index: (IC50 towards L929 or Raw264.7)/(EC50 for reversing drug resistance)
[5] = molecular target: T1, MRP1; assay: Reversal of MRP1-mediated vincristine resistance in 2008/MRP1 cells (cell proliferation assay); settings: (IC50 towards L929 or Raw264.7)/(EC50 for reversing drug resistance)
[6] = molecular target: T2, BCRP (Homo sapiens, UniProt Q9UNQ0); assay: cell-based
T2 sequence (Q9UNQ0 1-655): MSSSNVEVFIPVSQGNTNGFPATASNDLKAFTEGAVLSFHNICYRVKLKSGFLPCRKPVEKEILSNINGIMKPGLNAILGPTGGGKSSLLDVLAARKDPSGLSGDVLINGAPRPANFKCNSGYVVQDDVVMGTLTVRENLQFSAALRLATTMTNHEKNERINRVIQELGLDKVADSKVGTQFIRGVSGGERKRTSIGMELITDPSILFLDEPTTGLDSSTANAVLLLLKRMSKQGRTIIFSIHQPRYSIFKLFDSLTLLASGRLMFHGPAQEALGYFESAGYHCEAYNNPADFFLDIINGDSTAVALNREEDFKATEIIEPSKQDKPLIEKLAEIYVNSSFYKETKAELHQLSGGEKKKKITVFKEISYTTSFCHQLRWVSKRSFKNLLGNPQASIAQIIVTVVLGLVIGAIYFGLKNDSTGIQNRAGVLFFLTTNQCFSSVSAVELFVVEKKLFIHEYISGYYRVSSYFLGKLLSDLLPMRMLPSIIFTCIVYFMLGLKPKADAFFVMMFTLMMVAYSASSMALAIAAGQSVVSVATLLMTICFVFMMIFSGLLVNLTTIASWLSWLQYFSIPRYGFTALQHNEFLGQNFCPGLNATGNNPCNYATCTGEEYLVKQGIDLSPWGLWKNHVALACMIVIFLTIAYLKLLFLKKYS

[7] = molecular target: T2, BCRP; assay: Reversal of BCRP-mediated topotecan resistance in MCF7-MX100 cells (cell proliferation assay); settings: for Topotecan resistance of MCF7-MX100 Therapeutic index: (IC50 towards L929 or Raw264.7)/(EC50 for reversing drug resistance); for % of reversion of sensitivity of MCF7-MX100 towards topotecan: triazole dimers at 1.0 μM

T1 sequence (P33527 whole entry): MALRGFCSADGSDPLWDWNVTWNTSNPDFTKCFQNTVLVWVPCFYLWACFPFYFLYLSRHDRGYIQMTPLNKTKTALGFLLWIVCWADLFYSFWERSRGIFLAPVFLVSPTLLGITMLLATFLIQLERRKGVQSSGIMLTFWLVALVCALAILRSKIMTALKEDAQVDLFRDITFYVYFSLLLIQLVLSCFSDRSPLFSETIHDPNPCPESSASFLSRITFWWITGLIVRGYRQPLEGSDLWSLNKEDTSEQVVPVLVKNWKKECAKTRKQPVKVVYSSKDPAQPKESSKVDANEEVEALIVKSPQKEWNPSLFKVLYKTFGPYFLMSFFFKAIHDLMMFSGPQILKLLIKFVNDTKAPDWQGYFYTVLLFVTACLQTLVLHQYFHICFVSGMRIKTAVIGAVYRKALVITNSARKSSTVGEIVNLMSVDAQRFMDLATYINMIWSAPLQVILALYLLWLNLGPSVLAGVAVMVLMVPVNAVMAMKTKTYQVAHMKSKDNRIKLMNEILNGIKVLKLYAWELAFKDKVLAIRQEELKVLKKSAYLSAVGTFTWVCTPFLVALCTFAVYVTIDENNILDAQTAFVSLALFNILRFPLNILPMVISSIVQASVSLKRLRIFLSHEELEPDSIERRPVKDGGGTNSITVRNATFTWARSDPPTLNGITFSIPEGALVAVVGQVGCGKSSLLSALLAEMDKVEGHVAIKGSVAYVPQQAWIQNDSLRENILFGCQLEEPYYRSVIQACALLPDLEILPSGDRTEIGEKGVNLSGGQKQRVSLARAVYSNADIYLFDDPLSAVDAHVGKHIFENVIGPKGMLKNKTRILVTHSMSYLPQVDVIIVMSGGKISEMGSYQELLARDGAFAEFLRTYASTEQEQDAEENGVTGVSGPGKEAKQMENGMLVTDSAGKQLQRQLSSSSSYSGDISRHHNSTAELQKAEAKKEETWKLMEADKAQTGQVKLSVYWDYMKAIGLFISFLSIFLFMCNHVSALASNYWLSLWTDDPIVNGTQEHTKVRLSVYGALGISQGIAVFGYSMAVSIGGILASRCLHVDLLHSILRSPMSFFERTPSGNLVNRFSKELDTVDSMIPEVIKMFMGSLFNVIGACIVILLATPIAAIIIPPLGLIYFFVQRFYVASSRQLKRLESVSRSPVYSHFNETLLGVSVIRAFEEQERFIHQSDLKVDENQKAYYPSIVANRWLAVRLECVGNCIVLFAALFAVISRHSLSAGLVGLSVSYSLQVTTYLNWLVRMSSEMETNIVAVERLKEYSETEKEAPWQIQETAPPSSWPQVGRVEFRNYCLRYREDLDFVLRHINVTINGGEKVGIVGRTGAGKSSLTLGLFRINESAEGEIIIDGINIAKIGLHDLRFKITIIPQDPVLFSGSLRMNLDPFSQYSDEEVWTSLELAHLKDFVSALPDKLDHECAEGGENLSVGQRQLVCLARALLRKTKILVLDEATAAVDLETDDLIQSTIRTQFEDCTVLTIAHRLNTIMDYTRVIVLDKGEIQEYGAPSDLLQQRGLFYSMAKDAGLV

| SMILES | IC50 at 5 days [1] [µM] | EC50 [2] [µM] | Selectivity for ABC transporters (P-gp, MRP1, BCRP) [3] | DOX resistance of 2008/MRP1 Therapeutic index [4] | Vincristine resistance of 2008/MRP1 Therapeutic index [5] | EC50 [6] [µM] | % of reversion of sensitivity of 2008/MRP1 towards DOX ([4]; triazole dimers at 1.0 μM) | Topotecan resistance of MCF7-MX100 Therapeutic index [7] | % of reversion of sensitivity of MCF7-MX100 towards topotecan [7] |
| --- | --- | --- | --- | --- | --- | --- | --- | --- | --- |
| O=c1cc(-c2ccc(OCCOCCn3cc(CCCOc4ccc5c(=O)cc(-c6ccccc6)oc5c4)nn3)cc2)oc2ccccc12 [Ac2Az1, 7-(3-(1-(2-(2-(4-(4-Oxo-4H-chromen-2-yl)phenoxy)ethoxy)ethyl)-1H-1,2,3-triazol-4-yl)propoxy)-2-phenyl-4H-chromen-4-one] | > 100 | 0.145 ± 0.025 |  |  |  |  |  |  |  |
| O=c1cc(-c2ccc(OCCCc3cn(CCOCCOc4ccc(-c5cc(=O)c6ccccc6o5)cc4)nn3)cc2)oc2ccccc12 [Ac1Az1, 2-(4-(3-(1-(2-(2-(4-(4-Oxo-4H-chromen-2-yl)phenoxy)ethoxy)ethyl)-1H-1,2,3-triazol-4-yl)propoxy)phenyl)-4H-chromen-4-one] | 60.2 ± 16.3 | 0.128 ± 0.0325 |  |  |  |  |  |  |  |
| O=c1cc(-c2ccccc2)oc2cc(OCCCCc3cn(CCOCCOCCOc4ccc(-c5cc(=O)c6cc(F)ccc6o5)cc4)nn3)ccc12 [Ac12Az4, 6-Fluoro-2-(4-(2-(2-(2-(4-(4-((4-oxo-2-phenyl-4H-chromen-7-yl)oxy)butyl)-1H-1,2,3-triazol-1-yl)ethoxy)ethoxy)ethoxy)phenyl)-4H-chromen-4-one] | > 100 |  | MRP1- and BCRP-dual selectivity | >525.5 | >736.9 |  |  |  |  |
| COC(=O)c1cccc(COc2c(-c3ccc(OCCOCCn4cc(COCCOc5ccc6c(=O)cc(-c7ccccc7)oc6c5)nn4)cc3)oc3ccccc3c2=O)c1 [Ac13Az8, Methyl 3-(((4-oxo-2-(4-(2-(2-(4-((2-((4-oxo-2-phenyl-4H-chromen-7-yl)oxy)ethoxy)methyl)-1H-1,2,3-triazol-1-yl)ethoxy)ethoxy)phenyl)-4H-chromen-3-yl)oxy)methyl)benzoate] | > 100 |  | MRP1- and BCRP-dual selectivity |  |  | ≤ 0.01 | about 55.9% | >16666.7 | about 80.0% |
| COC(=O)c1cccc(COc2c(-c3ccc(OCCOCCn4cc(CN(Cc5ccccc5)Cc5cn(CCOCCOc6ccc(-c7oc8ccccc8c(=O)c7OCc7cccc(C(=O)OC)c7)cc6)nn5)nn4)cc3)oc3ccccc3c2=O)c1 [Ac15Az8, Dimethyl 3,3′-(((2,2′-((((((4,4′-((benzylazanediyl)bis(methylene))bis(1H-1,2,3-triazole-4,1-diyl))bis(ethane-2,1-diyl))bis(oxy))bis(ethane-2,1-diyl))bis(oxy))bis(4,1-phenylene))bis(4-oxo-4H-chromene-3,2-diyl))bis(oxy))bis(methylene))dibenzoate] | > 100 |  | mono-BCRP selectivity |  |  | ≤ 0.01 |  | >76923.1 |  |
| COC(=O)c1cccc(COc2c(-c3ccc(OCCOCCn4cc(CCCCOc5ccc(-c6cc(=O)c7cc(C)ccc7o6)cc5)nn4)cc3)oc3ccccc3c2=O)c1 [Ac5Az8, Methyl 3-(((2-(4-(2-(2-(4-(4-(4-(6-methyl-4-oxo-4H-chromen-2-yl)phenoxy)butyl)-1H-1,2,3-triazol-1-yl)ethoxy)ethoxy)phenyl)-4-oxo-4H-chromen-3-yl)oxy)methyl)benzoate] | > 100 |  | Pgp- and BCRP-dual selectivity |  |  | ≤ 0.01 |  | >25000.0 | about 64.0% |
| COC(=O)c1cccc(COc2c(-c3ccc(OCCOCCOCCn4cc(CCCCOc5ccc6c(=O)cc(-c7ccccc7)oc6c5)nn4)cc3)oc3ccccc3c2=O)c1 [Ac12Az9, Methyl 3-(((4-oxo-2-(4-(2-(2-(2-(4-(4-((4-oxo-2-phenyl-4H-chromen-7-yl)oxy)butyl)-1H-1,2,3-triazol-1-yl)ethoxy)ethoxy)ethoxy)phenyl)-4H-chromen-3-yl)oxy)methyl)benzoate] | > 100 |  | multi-selectivity towards P-gp, MRP1 and BCRP transporters |  |  | ≤ 0.01 |  | >71428.6 | about 80.0% |
| COC(=O)c1cccc(COc2c(-c3ccc(OCCOCCOCCn4cc(COCCOc5ccc6c(=O)cc(-c7ccccc7)oc6c5)nn4)cc3)oc3ccccc3c2=O)c1 [Ac13Az9] | > 100 |  | Pgp- and BCRP-dual selectivity |  |  | ≤ 0.01 |  | >50000.0 | about 80.0% |
| O=c1cc(-c2ccc(OCCOCCOCCn3cc(CCCCOc4ccc5c(=O)cc(-c6ccccc6)oc5c4)nn3)cc2)oc2ccccc12 [Ac12Az2, 7-(4-(1-(2-(2-(2-(4-(4-Oxo-4H-chromen-2-yl)phenoxy)ethoxy)ethoxy)ethyl)-1H-1,2,3-triazol-4-yl)butoxy)-2-phenyl-4H-chromen-4-one] | > 50 |  | MRP1- and BCRP-dual selectivity | >298.5 | >377.9 |  |  |  |  |
| COC(=O)c1cccc(COc2c(-c3ccc(OCCOCCOCCn4cc(CN(Cc5ccccc5)Cc5cn(CCOCCOCCOc6ccc(-c7oc8ccccc8c(=O)c7OCc7cccc(C(=O)OC)c7)cc6)nn5)nn4)cc3)oc3ccccc3c2=O)c1 [Ac15Az9, Dimethyl 3,3′-(((2,2′-((((((((4,4′-((benzylazanediyl)bis(methylene))bis(1H-1,2,3-triazole-4,1-diyl))bis(ethane-2,1-diyl))bis(oxy))bis(ethane-2,1-diyl))bis(oxy))bis(ethane-2,1-diyl))bis(oxy))bis(4,1-phenylene))bis(4-oxo-4H-chromene-3,2-diyl))bis(oxy))bis(methylene))dibenzoate] | > 100 |  | mono-BCRP selectivity |  |  | ≤ 0.01 |  | >50000.0 |  |
| COC(=O)c1cccc(COc2c(-c3ccc(OCCOCCn4cc(CCCCOc5ccc6c(=O)cc(-c7ccccc7)oc6c5)nn4)cc3)oc3ccccc3c2=O)c1 [Ac12Az8, Methyl 3-(((4-oxo-2-(4-(2-(2-(4-(4-((4-oxo-2-phenyl-4H-chromen-7-yl)oxy)butyl)-1H-1,2,3-triazol-1-yl)ethoxy)ethoxy)phenyl)-4H-chromen-3-yl)oxy)methyl)benzoate] | > 100 |  | multi-selectivity towards P-gp, MRP1 and BCRP transporters |  |  | ≤ 0.01 |  | >17857.1 | about 80.0% |
| COC(=O)c1cccc(COc2c(-c3ccc(OCCOCCOCCn4cc(CCCCOc5ccc(-c6cc(=O)c7cc(C)ccc7o6)cc5)nn4)cc3)oc3ccccc3c2=O)c1 [Ac5Az9, Methyl 3-(((2-(4-(2-(2-(2-(4-(4-(4-(6-methyl-4-oxo-4H-chromen-2-yl)phenoxy)butyl)-1H-1,2,3-triazol-1-yl)ethoxy)ethoxy)ethoxy)phenyl)-4-oxo-4H-chromen-3-yl)oxy)methyl)benzoate] | > 100 |  | multi-selectivity towards P-gp, MRP1 and BCRP transporters |  |  | ≤ 0.01 |  | >111111.1 | about 64.0% |
| COC(=O)c1cccc(COc2c(-c3ccc(OCCOCCOCCN=[N+]=[N-])cc3)oc3ccccc3c2=O)c1 [Az9, Methyl 3-(((2-(4-(2-(2-(2-azidoethoxy)ethoxy)ethoxy)phenyl)-4-oxo-4H-chromen-3-yl)oxy)methyl)benzoate] | 20.6 |  | mono-BCRP selectivity |  |  | ≤ 0.01 |  | 2019.6 |  |
